# Columns and labels:
# Visna virus = Visna virus test: inhibition of virus-induced cytopathic effect / virus multiplication in infected cell cultures; format: cell-based; conditions: Visna-maedi virus, 168 h, sheep fibroblast cells, 7 days at 37° C., Table 1, read-out: 2 MIC (minimum concentration at which an inhibition of virus multiplication was still observed)
# Procedure: In cell cultures which are infected with Visna virus, pronounced virus-induced, cytopathic effects appear 5 to 10 days after infection. By treatment of the infected cell cultures with the compounds according to the invention, the appearance of these cytopathic effects could be prevented.
# (§1) The Visna virus test was carried out by the method of O. Narayan et al., Journal of Infectious Diseases 135, 5, 1977, 800-806. For this, the compounds according to the invention were diluted to non-cytotoxic concentrations in culture medium in 96-well microtiter plates. Subsequently, sheep fibroblast cells (5×10^4 cells per well) in production medium were added to each well. Each well then contained 50 μl of a Visna virus solution having a titre of about 2.5×10^4TCID50 (TCID=tissue culture infectious dose). This virus dose corresponds to an MOI (multiplicity of infection) of about 0.05.
# The infected and treated cells and the controlled cells were incubated for 7 days at 37° C. and 5% CO2.
# On appearance of the virus-induced cytopathogenic effect in the untreated virus control, the cultures were fixed using formalin and subsequently stained with a Giemsa solution.
# (§2) Herein, MCC denotes cytotoxicity and MIC denotes the minimum concentration at which an inhibition of virus multiplication was still observed.
# Cytotoxicity (MCC) = format: cell-based; conditions: sheep, sheep fibroblast cells; MCC denotes cytotoxicity; Table 1
# Procedure: as §1, §2
SMILES,MIC (Visna virus),MCC (Cytotoxicity (MCC))
"CCOc1ccc(NC(=O)CCN2C[C@H](O)[C@@H](O)[C@H](O)[C@H]2CO)cc1 [Example 35, N-(4-Ethoxyphenyl)-3-(1,5-didesoxy-1,5-imino-D-glucit-N-yl)propionamide]",15 µg/mL,250 µg/mL
"C[C@H](NC(=O)CCN1C[C@H](O)[C@@H](O)[C@H](O)[C@H]1CO)c1ccccc1 [Example 102, N-[(1S)-1-Phenethyl]-3-(1,5-didesoxy-1,5-imino-D-glucit-N-yl)propionamide]",125 µg/mL,> 1000 µg/mL
"O=C(CCN1C[C@@H](O)[C@@H](O)[C@H](O)[C@H]1CO)N1CCN(c2ccc(F)cc2)CC1 [Example 82, 3-(1,5-Didesoxy-1,5-imino-D-mannit-N-yl)-propionyl-1-(4-p-fluorophenyl)piperazine]",500 µg/mL,> 1000 µg/mL
"O=C(CCN1C[C@H](O)[C@@H](O)[C@H](O)[C@H]1CO)Nc1ccc(F)cc1F [Example 18, N-(2,4-Difluorophenyl)-3-(1,5-didesoxy-1,5-imino-D-glucit-N-yl)propionamide]",500 µg/mL,> 1000 µg/mL
"C=CCOc1ccc(NC(=O)CCN2C[C@@H](O)[C@@H](O)[C@H](O)[C@H]2CO)cc1 [Example 51, N-(4-Allyloxyphenyl)-3-(1,5-didesoxy-1,5-imino-D-mannit-N-yl)propionamide]",250 µg/mL,1000 µg/mL
"Cc1cccc(N2CCN(C(=O)CCN3C[C@H](O)[C@@H](O)[C@H](O)[C@H]3CO)CC2)c1 [Example 93, 3-(1,5-Didesoxy-1,5-imino-D-glucit-N-yl)propionyl-1-(3-methylphenyl)piperazine]",500 µg/mL,> 1000 µg/mL
"Cc1ccccc1N1CCN(C(=O)CCN2C[C@H](O)[C@@H](O)[C@H](O)[C@H]2CO)CC1 [Example 96, 3-(1,5-Didesoxy-1,5-imino-D-glucit-N-yl)propionyl-1-(4-2-methylphenyl)piperazine]",500 µg/mL,> 1000 µg/mL
C[C@@H](NC(=O)CCN1C[C@H](O)[C@@H](O)[C@H](O)[C@H]1CO)c1ccccc1 [Example 103],125 µg/mL,> 1000 µg/mL
"O=C(CCN1C[C@@H](O)[C@@H](O)[C@H](O)[C@H]1CO)Nc1ccc(OC(F)(F)C(F)Cl)cc1 (stereo partly drawn) [Example 53, N-[4-(2-Chloro-1,1,2-trifluoroethoxy)phenyl]-3-(1,5-didesoxy-1,5-imino-D-mannit-N-yl)propionamide]",250 µg/mL,500 µg/mL
"N#Cc1cccc(NC(=O)CCN2C[C@H](O)[C@@H](O)[C@H](O)[C@H]2CO)c1 [Example 27, N-(3-Cyanophenyl)-3-(1,5-didesoxy-1,5-imino-D-glucit-N-yl)propionamide]",250 µg/mL,> 1000 µg/mL
"CSc1ccccc1NC(=O)CCN1C[C@H](O)[C@@H](O)[C@H](O)[C@H]1CO [Example 32, N-(2-Methylthiophenyl)-3-(1,5-didesoxy-1,5-imino-D-glucit-N-yl)propionamide]",250 µg/mL,> 1000 µg/mL
"O=C(CCN1C[C@H](O)[C@@H](O)[C@H](O)[C@H]1CO)Nc1ccccc1F [Example 16, N-(2-Fluorophenyl)-3-(1,5-didesoxy-1,5-imino-D-glucit-N-yl)propionamide]",250 µg/mL,> 1000 µg/mL
"O=C(CCN1C[C@H](O)[C@@H](O)[C@H](O)[C@H]1CO)Nc1ccc(OCc2ccccc2)cc1 [Example 4, N-(4-Benzyloxyphenyl)-3-(1,5-didesoxy-1,5-imino-D-glucit-N-yl)propionamide]",125 µg/mL,> 1000 µg/mL
"O=C(CCN1C[C@H](O)[C@@H](O)[C@H](O)[C@H]1CO)N1CCN(c2ccccc2F)CC1 [Example 92, 3-(1,5-Didesoxy-1,5-imino-D-glucit-N-yl)propionyl-1-(4-2-fluorophenyl)piperazine]",250 µg/mL,> 1000 µg/mL
"O=C(CCN1C[C@H](O)[C@@H](O)[C@H](O)[C@H]1CO)NCc1cccs1 [Example 101, N-[(Thiophen-2-yl)-methyl]-3-(1,5-didesoxy-1,5-imino-D-glucit-N-yl)propionamide]",125 µg/mL,1000 µg/mL
"O=C(CCN1C[C@H](O)[C@@H](O)[C@H](O)[C@H]1CO)Nc1ccc(OCCO)cc1 [Example 40, N-[4-(2-Hydroxyethoxy)phenyl]-3-(1,5-didesoxy-1,5-imino-D-glucit-N-yl)propionamide]",15 µg/mL,> 1000 µg/mL
"O=C(CCN1C[C@H](O)[C@@H](O)[C@H](O)[C@H]1CO)NCc1ccccn1 [Example 38, N-(2-Pyridylmethyl)-3-(1,5-didesoxy-1,5-imino-D-glucit-N-yl)propionamide]",250 µg/mL,1000 µg/mL

SMILES,MIC (Visna virus),MCC (Cytotoxicity (MCC))
"CC(C)c1ccc(NC(=O)CCN2C[C@@H](O)[C@@H](O)[C@H](O)[C@H]2CO)cc1 [Example 54, N-(4-Isopropylphenyl)-3-(1,5-didesoxy-1,5-imino-D-mannit-N-yl)propionamide]",250 µg/mL,1000 µg/mL
"O=C(CCN1C[C@H](O)[C@@H](O)[C@H](O)[C@H]1CO)Nc1ccc(OC(F)(F)C(F)Cl)cc1 (stereo partly drawn) [Example 12, N-[4-(2-Chloro-1,1,2-trifluoroethoxy)phenyl]-3-(1,5-didesoxy-1,5-imino-D-glucit-N-yl)propionamide]",250 µg/mL,1000 µg/mL
"CCCCNC(=O)CCN1C[C@H](O)[C@@H](O)[C@H](O)[C@H]1CO [Example 104, N-Butyl-3-(1,5-didesoxy-1,5-imino-D-glucit-N-yl)propionamide]",250 µg/mL,> 1000 µg/mL
"N#Cc1cccc(NC(=O)CCN2C[C@@H](O)[C@@H](O)[C@H](O)[C@H]2CO)c1 [Example 68, N-(3-Cyanophenyl)-3-(1,5-didesoxy-1,5-imino-D-mannit-N-yl)propionamide]",250 µg/mL,500 µg/mL
"O=C(CCN1C[C@H](O)[C@@H](O)[C@H](O)[C@H]1CO)N1CCc2ccccc21 [Example 17, 1-[3-(1,5-Didesoxy-1,5-imino-D-glucit-N-yl)propionyl]-2,3-dihydroindole]",125 µg/mL,1000 µg/mL
"O=C(O)CCCN1C[C@H](O)[C@@H](O)[C@H](O)[C@H]1CO [Example 107, 4-(1,5-Didesoxy-1,5-imino-D-glucit-N-yl)butanoic acid]",500 µg/mL,> 1000 µg/mL
"CCOc1ccc(NC(=O)CCN2C[C@@H](O)[C@@H](O)[C@H](O)[C@H]2CO)cc1 [Example 76, N-(4-Ethoxyphenyl)-3-(1,5-didesoxy-1,5-imino-D-mannit-N-yl)propionamide]",500 µg/mL,> 1000 µg/mL
"COC(=O)c1ccc(NC(=O)CCN2C[C@@H](O)[C@@H](O)[C@H](O)[C@H]2CO)cc1 [Example 43, N-(4-Methoxycarbonylphenyl)-3-(1,5-didesoxy-1,5-imino-D-mannit-N-yl)propionamide]",500 µg/mL,> 1000 µg/mL
"COc1cc(NC(=O)CCN2C[C@H](O)[C@@H](O)[C@H](O)[C@H]2CO)cc(OC)c1OC [Example 23, N-(3,4,5-Trimethoxyphenyl)-3-(1,5-didesoxy-1,5-imino-D-glucit-N-yl)propionamide]",75 µg/mL,150 µg/mL
"O=C(CCN1C[C@@H](O)[C@@H](O)[C@H](O)[C@H]1CO)Nc1ccc2c(c1)OCO2 [Example 72, N-(3,4-Methylenedioxyphenyl)-3-(1,5-didesoxy-1,5-imino-N-yl)propionamide]",500 µg/mL,> 1000 µg/mL
"O=C(CCN1C[C@H](O)[C@@H](O)[C@H](O)[C@H]1CO)Nc1ccc2c(c1)OCO2 [Example 31, N-(3,4-Methylenedioxyphenyl)-3-(1,5-didesoxy-1,5-imino-D-glucit-N-yl)propionamide]",125 µg/mL,> 1000 µg/mL
"COc1ccc(NC(=O)CCN2C[C@H](O)[C@@H](O)[C@H](O)[C@H]2CO)cc1OC [Example 24, N-(3,4-Dimethoxyphenyl)-3-(1,5-didesoxy-1,5-imino-D-glucit-N-yl)propionamide]",125 µg/mL,> 1000 µg/mL
"O=C(CCN1C[C@H](O)[C@@H](O)[C@H](O)[C@H]1CO)Nc1ccc(C(F)(F)F)cc1 [Example 11, N-(4-Trifluoromethylphenyl)-3-(1,5-didesoxy-1,5-imino-D-glucit-N-yl)propionamide]",500 µg/mL,> 1000 µg/mL
"CCN(CC)CCOc1ccc(NC(=O)CCN2C[C@@H](O)[C@@H](O)[C@H](O)[C@H]2CO)cc1 [Example 50, N-[4-(2-N,N-Diethylaminoethoxy)phenyl]-3-(1,5-didesoxy-1,5-imino-D-mannit-N-yl)propionamide]",250 µg/mL,1000 µg/mL
"COc1cc(NC(=O)CCN2C[C@@H](O)[C@@H](O)[C@H](O)[C@H]2CO)cc(OC)c1 [Example 66, N-(3,5-Dimethoxyphenyl)-3-(1,5-didesoxy-1,5-imino-D-mannit-N-yl)propionamide]",500 µg/mL,1000 µg/mL
"O=C(CCN1C[C@H](O)[C@@H](O)[C@H](O)[C@H]1CO)Nc1ccc(F)c(F)c1 [Example 19, N-(3,4-Difluorophenyl)-3-(1,5-didesoxy-1,5-imino-D-glucit-N-yl)propionamide]",125 µg/mL,> 1000 µg/mL
O=C(CCN1C[C@H](O)[C@@H](O)[C@H](O)[C@H]1CO)NCC(=O)c1ccccc1 [Example 90],250 µg/mL,1000 µg/mL
